Data reported in patent US8337906B2, “Nasal composition” (priority 2006, dated 2012).

Assays:
Assay type in all cases: cell-based
[1] = test system: Pseudomonas aeruginosa (PAO1); assay: Plate based assay, planktonic growth (OD600); conditions: dilutions 0.010% to 10.000%
Experimental: (§1) The anti-bacterial properties of ascorbic acid were evaluated by testing the effect of dilutions of the material on both biofilm and planktonic growth forms of a Pseudomonas aeruginosa isolate that was obtained from patients with cystic fibrosis. Pseudomonas aeruginosa is a common pathogen isolated from the sinuses of patients with chronic rhinosinusitis. The results of this evaluation as shown graphically in FIG. 1.
(§2) Known concentrations of the bacteria were placed in the 96 well culture plates. Dilutions of ascorbic acid (0% (Control), 0.010%, 0.033%, 0.100%, 0.330%, 1.000%, 3.330%, and 10.000%) were added to predetermined wells. […] The bacterial growth was measured both on the pegs as a biofilm and in the wells as planktonic cells.
(§3) More specifically, both bacterial planktonic and biofilm growth were determined using a modification of the plate based assay described by “Moskowitz et al. (Moskowitz S M, Foster J M, Emerson J, et al. Clinically feasible biofilm susceptibility for isolates of Pseudomonas aeruginosa from patients with cystic fibrosis. J. Clin. Microbiol. 2004, 42: 1915-1922). […] The original culture plate was read at OD600 to determine planktonic growth. […] The lid containing the pegs was then removed from the eluted crystal violet and read at 595 nm using a plate reader (Microplate Reader 680, Bio-Rad Hercules, Calif.). […]

[2] = test system: Pseudomonas aeruginosa (PAO1) biofilm; assay: Peg-lid biofilm formation assay (crystal violet, 595 nm); conditions: dilutions 0.010% to 10.000%
Experimental: as §1, §2, §3

[3] = test system: human sinonasal mucosa cilia; assay: Cilia beat frequency (CBF) in human sinonasal mucosa explants
Description: […] were subjected to concentrations of the nasal spray solution to test the effect of the product on the cilia beat frequency (CBF). The samples were microscopically visualized and the images captured at a rate of 250 frames per second using digital image sampling. The samples were first visualized for two to three seconds every minute for five minutes to establish a baseline Cilia Beating Rate. The samples were then subjected to dilutions of the formulation and the effect on the beating rate was measured by comparing this rate to the baseline rate. The results of the measured CBF are seen in FIG. 2.
More specifically, using a dual temperature controlled perfusion chamber, differential interference contrast microscopy, and high speed digital video, epithelial ciliary function was analyzed as described previously (Schipor I, Palmer I N, Cohen A S, Cohen N A. Quantification of ciliary beat frequency in sinonasal epithelial cells using differential interference contrast microscopy and high speed digital video imaging. Am J Rhino 12006; 20: 124-7). Residual human sinonasal mucosa from surgery was placed in ice cold Locke Ringer's solution [136 mM Nacl, 5.6 mM KCI, 10 mM HEPES, 14.3 mM NaHCO, 1.2 mM MgCl2, 2.2 mM CaCl2 and 11.5 mM dextrose, pH 7.35] for transport. Explants were placed in a glass perfusion chamber on a thermostatically controlled stage and held in place with a nylon grid (1.5 mm) whose outer frame is snapped into the inside of the perfusion chamber. The stage and perfusate were maintained at a temperature between 35.5° C. and 37° C. with a dual channel heater (Warner Inst., Hamden Conn.). […]
Images were visualized using a Leica DMLFSA microscope set on an air table (TMC, Peabody, Mass.) using a water immersion 63× objective and differential interference contrast (DIC) optics (Leica Microsystems, Inc., Bannockburn, Ill.). […] A two to three second video was recorded every minute for 5 minutes to establish a baseline frequency. […] The video images were written to a PCI 2.2 board and then analyzed using Midas Professional Analyst video imaging processing software (XCitex, Cambridge, Mass.).
Beating cilia were analyzed using the 1-D line tracking algorithm included in the motion analysis software. […] The software captured the motion history within the analysis grid for the duration of the video and recorded the gray scale intensity variation as a function of time. […] The frequency was calculated as the inverse of the peak-to-peak distance of this waveform. For each sample, at least three areas of beating cilia within the same field were analyzed and the reported frequencies represent the arithmetic means of these values. […]

`O=C1O[C@H]([C@@H](O)CO)C(O)=C1O` [ascorbate, ascorbic acid] was tested, and the “inhibition of planktonic form (in words)” value [1] was “dose dependent inhibition”, the “inhibition of biofilm form (in words)” value [2] was “dose dependent inhibition” and the “sinonasal CBF with increasing concentration (in words)” value ([3]; 0.01% to 0.1%) was “increasing trend”. The “increase in CBF” value ([3]; 0.1% ascorbate vs control) was 13.5%, the “increase in mucous transport” value ([3]; 0.1% ascorbate, extrapolated from CBF increase) was roughly 50% and the CBF ([3]; 0.1% ascorbate, control 11.8 Hz) was 1304 Hz.
